Values of other authors as cited in patent US20080234349A1, “PPAR active compounds” (priority 2005, published 2008).

How the values were obtained:
PPARδ = biological target: T1, PPARδ (Homo sapiens, UniProt Q03181)
T1 sequence (Q03181 1-441): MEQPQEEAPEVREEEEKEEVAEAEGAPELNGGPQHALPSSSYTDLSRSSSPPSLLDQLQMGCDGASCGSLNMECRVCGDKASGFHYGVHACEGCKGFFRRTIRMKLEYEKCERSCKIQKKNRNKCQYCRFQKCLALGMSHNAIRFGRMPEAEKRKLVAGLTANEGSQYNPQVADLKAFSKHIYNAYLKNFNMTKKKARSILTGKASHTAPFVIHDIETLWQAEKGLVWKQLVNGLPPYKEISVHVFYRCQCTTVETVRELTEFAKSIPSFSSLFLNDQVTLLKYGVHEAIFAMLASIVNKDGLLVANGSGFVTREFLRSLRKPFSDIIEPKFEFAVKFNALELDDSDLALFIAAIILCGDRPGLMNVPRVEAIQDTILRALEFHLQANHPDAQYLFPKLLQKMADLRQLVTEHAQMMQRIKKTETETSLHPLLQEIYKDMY

murine PPARα = biological target: T2, murine PPARα (Mus musculus, UniProt P23204)
T2 sequence (P23204 1-468): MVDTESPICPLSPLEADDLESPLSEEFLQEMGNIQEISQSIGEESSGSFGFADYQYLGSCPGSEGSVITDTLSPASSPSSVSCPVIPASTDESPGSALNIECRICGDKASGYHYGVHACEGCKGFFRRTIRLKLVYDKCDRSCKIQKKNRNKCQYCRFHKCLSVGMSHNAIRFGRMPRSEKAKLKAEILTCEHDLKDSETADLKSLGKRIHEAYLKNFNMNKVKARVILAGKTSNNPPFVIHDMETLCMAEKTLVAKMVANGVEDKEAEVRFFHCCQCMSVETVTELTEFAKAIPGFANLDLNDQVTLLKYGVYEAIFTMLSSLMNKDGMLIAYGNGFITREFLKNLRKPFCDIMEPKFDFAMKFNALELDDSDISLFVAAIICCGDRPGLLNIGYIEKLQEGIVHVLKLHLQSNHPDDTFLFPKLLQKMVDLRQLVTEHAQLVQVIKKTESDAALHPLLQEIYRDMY

[1] = recent large prospective trial, patients

SMILES | agonist selectivity for PPARδ over PPARγ (PPARδ) | activity on murine PPARα (murine PPARα) | reduction in cardiovascular events or death [1]
CCCc1c(OCCCOc2ccc(OCC(=O)O)cc2)ccc(C(C)=O)c1O [Compound L-165041] | approximately 30 fold | inactive | 
Cc1ccc(C)c(OCCCC(C)(C)C(=O)O)c1 [gemfibrozil] |  |  | 22%
